# Like-named read-outs stand apart in the source and are kept apart here.
# Tests used:
# [1] = cited from earlier work; for Change of rat rectal temperature: reference information (Non-Patent Document 4 or 5); for Change in rectal temperature in rats: from published information (Non-Patent Document 4 or 5)
# [2] = Effects on rectal temperature (8-1), oral administration to rats; format: in vivo, rat; conditions: oral single doses of 3, 10 and 30 mg/kg; 30, 60 and 120 minutes; maximum absolute difference vs vehicle
# Protocol: (8-1) Effects on Rectal Temperature
# A test compound was orally administered to rats at single doses of 3, 10 and 30 mg/kg. Then rectal temperature was measured 30, 60 and 120 minutes after administration.
# (§1) Differences of the mean value between a group treated with test substance and a vehicle-treated group were calculated at all measuring points and, based on the maximum absolute value of differences, changes in rectal temperature were divided into the following three categories:
# (§2) −: the maximum value was less than 0.5 degree Celsius +: the maximum value was more than 0.5 degree but less than 1.0 degree Celsius ++: the maximum value was more than 1.0 degree Celsius
# [3] = Effects on rectal temperature (8-2), oral administration to rats; format: in vivo, rat; conditions: single dose of 10 mg/kg, 30, 60 and 120 minutes, maximum absolute difference vs vehicle
# Protocol: (§3) (8-2) Effects on Rectal Temperature
# A test compound was orally administered to rats at single dose of 10 mg/kg. Then rectal temperature was measured 30, 60 and 120 minutes after administration.
# as §1, §2
# [4] = Effects on rectal temperature (8-2), administration into tail veins of rats; format: in vivo, rat; conditions: Intravenous, single dose of 1 mg/kg; 15, 30 and 60 minutes; maximum absolute difference vs vehicle
# Protocol: as §3
# A test compound was administered to rats into tail veins at single dose of 1 mg/kg. Then rectal temperature was measured 15, 30 and 60 minutes after administration.
# as §1, §2
# human TRPV1 = target: T1, human TRPV1 (Homo sapiens, UniProt Q8NER1); experiment: Capsaicin (10 nmol/L)-induced Ca influx in transformed CHO cells, FDSS-6000 (b-2), IC50; format: cell-based
# T1 construct: expressed in transfected cells; host or cells: CHO-K1 cells, pCAGGS vector, clones selected by limiting dilution
# T1 sequence (Q8NER1 whole entry): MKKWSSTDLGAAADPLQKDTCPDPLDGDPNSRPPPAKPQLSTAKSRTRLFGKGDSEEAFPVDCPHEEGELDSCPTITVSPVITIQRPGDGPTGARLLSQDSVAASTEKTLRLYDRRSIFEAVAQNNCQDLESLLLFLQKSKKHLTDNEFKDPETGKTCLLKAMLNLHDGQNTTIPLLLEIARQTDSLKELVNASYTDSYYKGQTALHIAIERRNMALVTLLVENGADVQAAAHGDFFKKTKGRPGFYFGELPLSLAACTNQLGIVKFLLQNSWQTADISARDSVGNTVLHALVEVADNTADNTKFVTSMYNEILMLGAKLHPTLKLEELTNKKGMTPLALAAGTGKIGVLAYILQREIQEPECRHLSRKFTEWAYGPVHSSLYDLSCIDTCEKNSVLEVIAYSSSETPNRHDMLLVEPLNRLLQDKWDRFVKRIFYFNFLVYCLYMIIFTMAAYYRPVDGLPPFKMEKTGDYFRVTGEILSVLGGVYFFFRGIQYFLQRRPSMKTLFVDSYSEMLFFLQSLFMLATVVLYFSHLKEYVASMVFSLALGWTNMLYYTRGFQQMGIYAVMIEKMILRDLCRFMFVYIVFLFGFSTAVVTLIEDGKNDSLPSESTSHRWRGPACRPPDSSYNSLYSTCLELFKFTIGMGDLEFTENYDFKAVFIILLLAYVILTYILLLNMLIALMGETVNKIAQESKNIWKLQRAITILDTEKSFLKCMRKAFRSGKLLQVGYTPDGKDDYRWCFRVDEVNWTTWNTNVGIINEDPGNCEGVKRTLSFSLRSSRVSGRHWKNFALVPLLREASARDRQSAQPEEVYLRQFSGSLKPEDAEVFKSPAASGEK
# From the text: (1) Measurement of Capsaicin-Induced Ca Influx in a Transformed CHO Cell Line Expressing Human TRPV1
# (a) Establishment of a Transformed CHO Cell Line Expressing Human and Rat TRPV1
# Human and rat vanilloid receptor 1 (hTRPV1 and rTRPV1) cDNA was cloned from human brain and rat dorsal root ganglion, respectively. The cloned TRPV1 cDNA was incorporated in a pCAGGS vector. The vector was introduced to a CHO-K1 cell line, thus performing transformation. Clones obtained by limiting dilution were stimulated with capsaicin. Clones with a high responsiveness were selected using an increase in the Ca concentration as an indicator. The selected clones were used for the following experiment.
# (b-2) Measurement of Ca Influx using FDSS-6000
# The transformed CHO cells expressing human or rat TRPV1 were inoculated in a 96-well plate (with black walls and transparent bottoms, manufactured by Greiner) at a density of 40,000 cells per well. The cells were cultured at 37° C. in 5% CO2 atmosphere for one night. A loading solution of FLIPR Calcium 3 assay kit (manufactured by Molecular Devices Corporation) containing 2.5 mmol/L of probenecid was then added to each of the wells in the same amount as the culture medium, and the cells were cultured at 37° C. for 60 minutes. For three minutes after the cells were stimulated with capsaicin (10 nmol/L), the change of the intracellular Ca concentration was measured using FDSS-6000 (λex: 480 nm, λem: 540 nm, manufactured by Hamamatsu Photonics K.K.). The integrated values of the increase rate of the intracellular Ca concentration were calculated for a group treated with the compounds of the present invention and a group treated with a vehicle. Then, the concentration of the compound of the present invention was calculated that inhibits 50% of the intracellular Ca concentration increase induced by capsaicin (IC50). Using this value as the index, inhibitory effects of the test compounds were compared. In addition, when IC50 value in human TRPV1 was less than 100 nmol/L, it was shown as A in Table 1C.
SMILES,IC50 (human TRPV1) [µM],also measured
"O=C(Nc1ccc(C(F)(F)F)cn1)N1CCN(c2ncccc2C(F)(F)F)CC1 [Compound A, 4-(3-trifluoromethylpyridine-2-yl)-N-(5-trifuluoromethylpiridine-2-yl)-1-piperadinecarboxamide]",,Change of rat rectal temperature ([1]; Oral): Increase^1); Change in rectal temperature in rats [1]: increased^1)
"CC(C)(C)c1ccc(/C=C/C(=O)Nc2ccc3c(c2)OCCO3)cc1 [Compound B, (E)-3-(4-t-butylphenyl)-N-(2,3-dihydrobenzo[b][1,4]dioxine-6-yl)acrylamide]",,Change of rat rectal temperature ([1]; Intraperitoneal): Increase^1); Change in rectal temperature in rats [1]: Increased^1)
"CC(=O)Nc1nc2c(Oc3cc(-c4ccc(C(F)(F)F)cc4)ncn3)cccc2s1 [Compound C, N-(4-[6-(4-trifluoromethyl-phenyl)-pyrimidin-4-yloxy]-benzothiazol-2-yl)-acetamide, reference compound]",,Change in rectal temperature in rats [2]: ++ (increased) (the maximum value was more than 1.0 degree Celsius); Change of rat rectal temperature [3]: ++ (Increase) (the maximum value was more than 1.0 degree Celsius)
"O=C(/C=C1\CCCOc2cc(C(F)(F)F)ccc21)Nc1cccc2c1CC(O)CN2 (stereo not drawn) [Compound D, (E)-2-(8-trifluoromethyl-3,4-dihydrobenzo[b]oxepin-5(2H)-ylidene)-N-(3-hydroxy-1,2,3,4-tetrahydroquinolin-5-yl)acetamide, reference compound]",,Change in rectal temperature in rats [2]: ++ (increased) (the maximum value was more than 1.0 degree Celsius); Change of rat rectal temperature [4]: + (Increase) (the maximum value was more than 0.5 degree but less than 1.0 degree Celsius)
"CN1C(=O)NCc2c(NC(=O)/C=C3\CCCOc4cc(C(F)(F)F)ccc43)cccc21 [Example 302, (E)-2-(3,4-dihydro-8-trifluoromethyl-1-benzoxepin-5(2H)-ylidene)-N-(3,4-dihydro-1-methyl-2(1H)-quinazolinone-5-yl)acetamide]",< 0.1,
"CN1C(=O)NCc2c(NC(=O)/C=C3\CCOc4cc(C(F)(F)F)ccc43)cccc21 [Example 304, (E)-2-(7-trifluoromethylchroman-4-ylidene)-N-(3,4-dihydro-1-methyl-2(1H)-quinazolinone-5-yl)acetamide]",< 0.1,
"CCN1C(=O)NCc2c(NC(=O)/C=C3\CCOCc4cc(C(F)(F)F)ccc43)cccc21 [Example 307, (E)-2-(3,4-dihydro-8-trifluoromethyl-2-benzoxepin-5(1H)-ylidene)-N-(3,4-dihydro-1-ethyl-2(1H)-quinazolinone-5-yl)acetamide]",< 0.1,
"CCN1C(=O)NCc2c(NC(=O)/C=C3\CC(CC)(CC)Oc4cc(C(F)(F)F)ccc43)cccc21 [Example 310, (E)-2-(2,2-diethyl-7-trifluoromethylchroman-4-ylidene)-N-(3,4-dihydro-1-ethyl-2(1H)-quinazolinone-5-yl)acetamide]",< 0.1,
"CCN1C(=O)NCc2c(NC(=O)/C=C3\CC4(CCOCC4)Oc4cc(C(F)(F)F)ccc43)cccc21 [Example 312, (E)-2-(7-trifluoromethyl-spiro[chroman-2,4′-tetrahydropyran]-4-ylidene)-N-(3,4-dihydro-1-ethyl-2(1H)-quinazolinone-5-yl)acetamide]",< 0.1,

# More lines, main results first:
IC50 (human TRPV1) [µM],SMILES,also measured
< 0.1,"CN1C(=O)NCc2c(NC(=O)/C=C3\CCOCc4cc(C(F)(F)F)ccc43)cccc21 [Example 303, (E)-2-(3,4-dihydro-8-trifluoromethyl-2-benzoxepin-5(1H)-ylidene)-N-(3,4-dihydro-1-methyl-2(1H)-quinazolinone-5-yl)acetamide]",
< 0.1,"CN1C(=O)NCc2c(NC(=O)/C=C3\CC(C)(C)Oc4cc(C(F)(F)F)ccc43)cccc21 [Example 305, (E)-2-(2,2-dimethyl-7-trifluoromethylchroman-4-ylidene)-N-(3,4-dihydro-1-methyl-2(1H)-quinazolinone-5-yl)acetamide]",Change of rat rectal temperature [4]: − (the maximum value was less than 0.5 degree Celsius)
< 0.1,"CCN1C(=O)NCc2c(NC(=O)/C=C3\CCCOc4cc(C(F)(F)F)ccc43)cccc21 [Example 306, (E)-2-(3,4-dihydro-B-trifluoromethyl-1-benzoxepin-5(2H)-ylidene)-N-(3,4-dihydro-1-ethyl-2(1H)-quinazolinone-5-yl)acetamide]",
< 0.1,"CCN1C(=O)NCc2c(NC(=O)/C=C3\CCOc4cc(C(F)(F)F)ccc43)cccc21 [Example 308, (E)-2-(7-trifluoromethylchroman-4-ylidene)-N-(3,4-dihydro-1-ethyl-2(1H)-quinazolinone-5-yl)acetamide]",
< 0.1,"CCN1C(=O)NCc2c(NC(=O)/C=C3\CC(C)(C)Oc4cc(C(F)(F)F)ccc43)cccc21 [Example 309, (E)-2-(2,2-dimethyl-7-trifluoromethylchroman-4-ylidene)-N-(3,4-dihydro-1-ethyl-2(1H)-quinazolinone-5-yl)acetamide]",
< 0.1,"CCN1C(=O)NCc2c(NC(=O)/C=C3\CC(COC)(COC)Oc4cc(C(F)(F)F)ccc43)cccc21 [Example 311, (E)-2-(2,2-bis(methoxymethyl)-7-trifluoromethylchroman-4-ylidene)-N-(3,4-dihydro-1-ethyl-2(1H)-quinazolinone-5-yl)acetamide]",
< 0.1,"CN1C(=O)NCc2c(NC(=O)/C=C3\NC(C)(C)Oc4cc(C(F)(F)F)ccc43)cccc21 [Example 313, (Z)-2-(2,3-dihydro-2,2-dimethyl-7-trifluoromethyl-4H-1,3-benzoxazin-4-ylidene)-N-(3,4-dihydro-1-methyl-2(1H)-quinazolinone-5-yl)acetamide]",

# Source: patent US20100016285A1, “HETEROCYCLIDENE-N-(ARYL) ACETAMIDE DERIVATIVE” (MOCHIDA PHARMACEUTICAL CO., LTD., priority 2007, published 2010)
